# Source: patent publication US20240301372A1, “TREATMENT FOR HSV-1 USING A MEGANUCLEASE” (priority 2021, published 2024)
# Tested on: HSV-1
# Test: JQ1 reactivation (shedding) mouse model
# Format: in vivo, mice
# Conditions: for shedding of HSV from mucosal surfaces: 50 mg/kg
# Experimental: FIG. 19. Schematic for JQ1 reactivation experiment. Latent infected mice were divided into three experimental groups to determine the effect of JQ1 on HSV reactivation. As illustrated in the figure, Group 1 and Group 2 were JQ1 groups that received a 50 mg/kg intraperitoneal injection of JQ1. Group 3 was the control group, i.e., no JQ1 injection. Group 1 mice received two injections, the first JQ1 injection at 0 hrs and the second JQ1 injection at 12 hrs. Group 2 mice received one injection at 0 hrs. Group 3 mice received one control injection at 0 hrs. To determine shedding from mucosal surfaces, as an indicator of HSV reactivation, mice were swabbed at 0 hrs (control) and this swab was compared to swabs taken at 24 hours, 48 hours, and 72 hours.
# To begin, the mouse model for BET induced shedding was verified. In this model, latent infected mice were divided into three experimental groups to determine the effect of the BET inhibitor, JQ1, on HSV-1 reactivation. FIG. 19. As illustrated, Group 1 and Group 2 were JQ1 groups that received 50 mg/kg intraperitoneal injection of JQ1. Group 3 was the control group, i.e., no JQ1 injection. Group 1 mice received two injections, the first JQ1 injection at 0 hrs and the second JQ1 injection at 12 hrs. Group 2 mice received one injection at 0 hrs. Group 3 mice received one control injection at 0 hrs. To determine shedding from mucosal surfaces, as an indicator of HSV-1 reactivation, mice were swabbed at 0 hrs (control) and this swab was compared to swabs taken at 24 hours, 48 hours, and 72 hours. […] FIG. 20B. […] Compare the onset and duration of viral shedding in JQ1 double dose to JQ1 single dose.
smiles,measurement,setting,value
"Cc1sc2c(c1C)C(c1ccc(Cl)cc1)=N[C@@H](CC(=O)OC(C)(C)C)c1nnc(C)n1-2 [JQ1, tert-butyl (S)-2-(4-(4-chlorophenyl)-2,3,9-trimethyl-6H-thieno[3,2-f][1,2,4]triazolo[4,3-a][1,4]diazepin-6-yl)acetate]",time of peak shedding following JQ1 injection,single dose 50 mg/kg intraperitoneal,2 days
same,shedding of HSV from mucosal surfaces,"single dose 50 mg/kg intraperitoneal at 0 hrs, swabs 24, 48, 72 hours",Shedding was detected
same,shedding of HSV from mucosal surfaces,two doses 50 mg/kg intraperitoneal at 0 hrs and 12 hrs,Shedding was also detected
